Test system: not given
Test: not given
Conditions: not given

Question: Which melting point does the source give for `Cc1ccccc1C(=O)NCc1ccc(CNS(=O)(=O)c2ccccc2)cc1` [IIIb, 2-Methyl-N-(4-(phenylsulfonamidomethyl)benzyl)benzamide] here?
Answer: 129 to 131 °C

Question: With `Cc1cccc(C(=O)NCc2ccc(CNS(=O)(=O)c3ccccc3)cc2)c1` [IIIc, 3-Methyl-N-(4-(phenylsulfonamidomethyl)benzyl)benzamide] as the molecule, how does the melting point read?
Answer: 112 to 114 °C

Question: Which melting point does the source give for `Cc1ccc(C(=O)NCc2ccc(CNS(=O)(=O)c3ccccc3)cc2)cc1` [IIId, 4-Methyl-N-(4-(phenylsulfonamidomethyl)benzyl)benzamide] here?
Answer: 188 to 190 °C

Question: With `COc1ccccc1C(=O)NCc1ccc(CNS(=O)(=O)c2ccccc2)cc1` [IIIe, 2-Methoxy-N-(4-(phenylsulfonamidomethyl)benzyl)benzamide] as the molecule, how does the melting point read?
Answer: 123 to 125 °C

Question: With `COc1cccc(C(=O)NCc2ccc(CNS(=O)(=O)c3ccccc3)cc2)c1` [IIIf, 3-Methoxy-N-(4-(phenylsulfonamidomethyl)benzyl)benzamide] as the molecule, how does the melting point read?
Answer: 120 to 122 °C

Question: For `COc1ccc(C(=O)NCc2ccc(CNS(=O)(=O)c3ccccc3)cc2)cc1` [IIIg, 4-Methoxy-N-(4-(phenylsulfonamidomethyl)benzyl)benzamide], which melting point is on record?
Answer: 164 to 166 °C

Question: Which melting point does the source give for `O=C(NCc1ccc(CNS(=O)(=O)c2ccccc2)cc1)c1ccccc1F` [IIIh, 2-Fluoro-N-(4-(phenylsulfonamidomethyl)benzyl)benzamide] here?
Answer: 122 to 124 °C

Question: With `O=C(NCc1ccc(CNS(=O)(=O)c2ccccc2)cc1)c1ccccc1Cl` [IIIk, 2-Chloro-N-(4-(phenylsulfonamidomethyl)benzyl)benzamide] as the molecule, how does the melting point read?
Answer: 116 to 118 °C

Question: For `O=C(NCc1ccc(CNS(=O)(=O)c2ccccc2)cc1)c1cccc(Cl)c1` [IIIm, 3-Chloro-N-(4-(phenylsulfonamidomethyl)benzyl)benzamide], which melting point is on record?
Answer: 114 to 116 °C

Question: With `O=C(NCc1ccc(CNS(=O)(=O)c2ccccc2)cc1)c1ccc(Cl)cc1` [IIIn, 4-Chloro-N-(4-(phenylsulfonamidomethyl)benzyl)benzamide] as the molecule, how does the melting point read?
Answer: 182 to 184 °C

Question: For `O=C(NCc1ccc(CNS(=O)(=O)c2ccccc2)cc1)c1ccc([N+](=O)[O-])cc1` [IIIo, 4-Nitro-N-(4-(phenylsulfonamidomethyl)benzyl)benzamide], which melting point is on record?
Answer: 201 to 203 °C

Question: Which melting point does the source give for `O=C(NCc1ccc(CNS(=O)(=O)c2ccccc2)cc1)c1c(Cl)cc(Cl)cc1Cl` [IIIp, 2,4,6-Trichloro-N-(4-(phenylsulfonamidomethyl)benzyl)benzamide] here?
Answer: 158 to 160 °C

Question: For `O=C(NCc1ccc(CNS(=O)(=O)c2ccccc2)cc1)c1cccnc1` [IIIq, N-(4-(phenylsulfonamidomethyl)benzyl)nicotinamide], which melting point is on record?
Answer: 109 to 111 °C

Question: For `O=C(NCc1ccc(CNS(=O)(=O)c2ccccc2)cc1)c1ccncc1` [IIIr, N-(4-(phenylsulfonamidomethyl)benzyl)isonicotinamide], which melting point is on record?
Answer: 154 to 156 °C

Question: With `Cc1ccc(S(=O)(=O)NCc2ccc(CNC(=O)c3ccccc3)cc2)cc1` [IIa, N-(4-((4-methylphenylsulfonamido)methyl)benzyl)benzamide] as the molecule, how does the melting point read?
Answer: 162 to 164 °C

Question: With `Cc1ccc(S(=O)(=O)NCc2ccc(CNC(=O)c3ccccc3C)cc2)cc1` [IIb, 2-Methyl-N-(4-((4-methylphenylsulfonamido)methyl)benzyl)benzamide] as the molecule, how does the melting point read?
Answer: 147 to 149 °C

Question: For `Cc1ccc(S(=O)(=O)NCc2ccc(CNC(=O)c3cccc(C)c3)cc2)cc1` [IIc, 3-Methyl-N-(4-((4-methylphenylsulfonamido)methyl)benzyl)benzamide], which melting point is on record?
Answer: 123 to 125 °C

Question: Which melting point does the source give for `Cc1ccc(C(=O)NCc2ccc(CNS(=O)(=O)c3ccc(C)cc3)cc2)cc1` [IId, 4-Methyl-N-(4-((4-methylphenylsulfonamido)methyl)benzyl)benzamide] here?
Answer: 180 to 182 °C

Question: With `COc1ccccc1C(=O)NCc1ccc(CNS(=O)(=O)c2ccc(C)cc2)cc1` [IIe, 2-Methoxy-N-(4-((4-methylphenylsulfonamido)methyl)benzyl)benzamide] as the molecule, how does the melting point read?
Answer: 154 to 156 °C

Question: For `COc1cccc(C(=O)NCc2ccc(CNS(=O)(=O)c3ccc(C)cc3)cc2)c1` [IIf, 3-Methoxy-N-(4-((4-methylphenylsulfonamido)methyl)benzyl)benzamide], which melting point is on record?
Answer: 130 to 132 °C

Question: Which melting point does the source give for `COc1ccc(C(=O)NCc2ccc(CNS(=O)(=O)c3ccc(C)cc3)cc2)cc1` [IIg, 4-Methoxy-N-(4-((4-methylphenylsulfonamido)methyl)benzyl)benzamide] here?
Answer: 147 to 149 °C

Question: For `Cc1ccc(S(=O)(=O)NCc2ccc(CNC(=O)c3ccccc3F)cc2)cc1` [IIh, 2-Fluoro-N-(4-((4-methylphenylsulfonamido)methyl)benzyl)benzamide], which melting point is on record?
Answer: 138 to 140 °C

Question: With `Cc1ccc(S(=O)(=O)NCc2ccc(CNC(=O)c3cccc(F)c3)cc2)cc1` [IIi, 3-Fluoro-N-(4-((4-methylphenylsulfonamido)methyl)benzyl)benzamide] as the molecule, how does the melting point read?
Answer: 137 to 139 °C

Question: Which melting point does the source give for `Cc1ccc(S(=O)(=O)NCc2ccc(CNC(=O)c3ccccc3Cl)cc2)cc1` [IIk, 2-Chloro-N-(4-((4-methylphenylsulfonamido)methyl)benzyl)benzamide] here?
Answer: 140 to 142 °C

Question: Which melting point does the source give for `Cc1ccc(S(=O)(=O)NCc2ccc(CNC(=O)c3cccc(Cl)c3)cc2)cc1` [IIm, 3-Chloro-N-(4-((4-methylphenylsulfonamido)methyl)benzyl)benzamide] here?
Answer: 110 to 112 °C

Question: For `Cc1ccc(S(=O)(=O)NCc2ccc(CNC(=O)c3ccc(Cl)cc3)cc2)cc1` [IIn, 4-Chloro-N-(4-((4-methylphenylsulfonamido)methyl)benzyl)benzamide], which melting point is on record?
Answer: 201 to 203 °C

Question: With `Cc1ccc(S(=O)(=O)NCc2ccc(CNC(=O)c3ccc([N+](=O)[O-])cc3)cc2)cc1` [IIo, N-(4-((4-methylphenylsulfonamido)methyl)benzyl)-4-nitrobenzamide] as the molecule, how does the melting point read?
Answer: 207 to 209 °C

Question: With `Cc1ccc(S(=O)(=O)NCc2ccc(CNC(=O)c3c(Cl)cc(Cl)cc3Cl)cc2)cc1` [IIp, 2,4,6-Trichloro-N-(4-((4-methylphenylsulfonamido)methyl)benzyl)benzamide] as the molecule, how does the melting point read?
Answer: 188 to 190 °C

Question: With `Cc1ccc(S(=O)(=O)NCc2ccc(CNC(=O)c3cccnc3)cc2)cc1` [IIq, N-(4-((4-methylphenylsulfonamido)methyl)benzyl)nicotinamide] as the molecule, how does the melting point read?
Answer: 120 to 122 °C

Question: For `Cc1ccc(S(=O)(=O)NCc2ccc(CNC(=O)c3ccncc3)cc2)cc1` [IIr, N-(4-((4-methylphenylsulfonamido)methyl)benzyl)isonicotinamide], which melting point is on record?
Answer: 163 to 165 °C

Question: With `O=C(NCc1ccc(CNS(=O)(=O)c2ccc3c(c2)CCO3)cc1)c1cc2ccccn2n1` [Ib, N-(4-((2,3-dihydrobenzofuran-5-sulfonamido)methyl)benzyl)pyrazolo[1,5-a]pyridine-2-carboxamide] as the molecule, how does the melting point read?
Answer: 180 to 182 °C

Question: With `Cn1nccc1C(=O)NCc1ccc(CNS(=O)(=O)c2ccc3c(c2)CCO3)cc1` [Ic, N-(4-((2,3-dihydrobenzofuran-5-sulfonamido)methyl)benzyl)-1-methyl-1H-pyrazole-5-carboxamide] as the molecule, how does the melting point read?
Answer: 143 to 145 °C

Question: For `O=C(NCc1ccc(CNS(=O)(=O)c2ccc3c(c2)CCO3)cc1)c1cccc2c1COC2` [Id, N-(4-((2,3-dihydrobenzofuran-5-sulfonamido)methyl)benzyl)-1,3-dihydroisobenzofuran-4-carboxamide], which melting point is on record?
Answer: 149 to 151 °C

Question: Which melting point does the source give for `O=C(NCc1ccc(CNS(=O)(=O)c2ccc(F)cc2F)cc1)c1ncc[nH]1` [Ie, N-(4-((2,4-difluorophenylsulfonamido)methyl)benzyl)-1H-imidazole-2-carboxamide] here?
Answer: 225 to 227 °C

Question: With `O=C(NCc1ccc(CNS(=O)(=O)c2cccc(F)c2)cc1)c1cc2ccccn2n1` [Ih, N-(4-((3-fluorophenylsulfonamido)methyl)benzyl)pyrazolo[1,5-a]pyridine-2-carboxamide] as the molecule, how does the melting point read?
Answer: 163 to 165 °C

Question: With `O=C(NCc1ccc(CNS(=O)(=O)c2ccc(F)c(F)c2)cc1)c1cnc2ccccn12` [Ii, N-(4-((3,4-difluorophenylsulfonamido)methyl)benzyl)imidazo[1,2-a]pyridine-3-carboxamide] as the molecule, how does the melting point read?
Answer: 192 to 194 °C

Question: Which melting point does the source give for `O=C(NCc1ccc(CNS(=O)(=O)c2ccccc2F)cc1)c1cc2ccccn2n1` [Ij, N-(4-((2-fluorophenylsulfonamido)methyl)benzyl)pyrazolo[1,5-a]pyridine-2-carboxamide] here?
Answer: 138 to 140 °C

Molecular target: T1, CXCR4 (Homo sapiens, UniProt P61073)
T1 construct: endogenous in cells; host or cells: MDA-MB-231
T1 sequence (P61073 whole entry): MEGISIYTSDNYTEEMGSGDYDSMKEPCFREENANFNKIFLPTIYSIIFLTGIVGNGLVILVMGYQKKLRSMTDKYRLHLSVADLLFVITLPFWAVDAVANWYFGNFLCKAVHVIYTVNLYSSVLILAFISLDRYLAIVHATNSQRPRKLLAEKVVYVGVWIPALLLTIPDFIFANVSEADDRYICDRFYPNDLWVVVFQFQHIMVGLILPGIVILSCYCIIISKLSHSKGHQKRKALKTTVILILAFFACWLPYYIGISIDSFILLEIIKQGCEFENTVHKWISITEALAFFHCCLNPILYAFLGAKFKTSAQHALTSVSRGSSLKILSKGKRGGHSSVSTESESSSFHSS
Test: Primary binding affinity screening (competition with biotinylated TN14003 on MDA-MB-231 cells)
Conditions: EC relative to AMD3100
Experimental: For binding affinity assay, 2×10^4 MDA-MB-231 cells in 300 μL of cell culture medium were seeded in an 8-well slide chamber 2 days before the experiments were conducted. Various concentrations of different compounds (1, 10, 100, or 1000 nM) were added to the separate wells and incubated for 10 minutes at room temperature, and then the cells were fixed in 4% ice-cold paraformaldehyde. The cells were rehydrated in phosphate-buffered saline (PBS). The slides were subsequently incubated for 30 minutes at room temperature with 0.05 μg/mL biotinylated TN14003, washed three times with PBS, and incubated in streptavidin-rhodamine (1:150 dilution; Jackson ImmunoResearch Laboratories, West Grove, Pa.) for 30 minutes at room temperature. Finally, the slides were washed with PBS and mounted in an anti-fade mounting solution (Molecular Probes, Eugene, Oreg.), and the samples were analyzed on a Nikon Eclipse E800 microscope.

Question: With `Cc1ccccc1C(=O)NCc1ccc(CNS(=O)(=O)c2ccccc2)cc1` [IIIb, 2-Methyl-N-(4-(phenylsulfonamidomethyl)benzyl)benzamide] as the molecule, how does the “potency compared with AMD3100” value read?
Answer: 1000 fold

Question: For `COc1ccccc1C(=O)NCc1ccc(CNS(=O)(=O)c2ccccc2)cc1` [IIIe, 2-Methoxy-N-(4-(phenylsulfonamidomethyl)benzyl)benzamide], which “potency compared with AMD3100” value is on record?
Answer: 1000 fold

Question: With `O=C(NCc1ccc(CNS(=O)(=O)c2ccccc2)cc1)c1ccc(F)cc1` [IIIj, 4-Fluoro-N-(4-(phenylsulfonamidomethyl)benzyl)benzamide] as the molecule, how does the “potency compared with AMD3100” value read?
Answer: 1000 fold

Question: With “Fluoro-N-(4-(phenylsulfonamidomethyl)benzyl)benzamide [IIIi]” as the molecule, how does the “potency compared with AMD3100” value read?
Answer: 1000 fold

Same assay, conditions: MDA-MB-231 cells; compounds at 1, 10, 100, or 1000 nM; biotinylated TN14003

Question: With `Cc1ccccc1C(=O)NCc1ccc(CNS(=O)(=O)c2ccccc2)cc1` [IIIb, 2-Methyl-N-(4-(phenylsulfonamidomethyl)benzyl)benzamide] as the molecule, how does the EC read?
Answer: 1 nM

Question: Which EC does the source give for `COc1ccccc1C(=O)NCc1ccc(CNS(=O)(=O)c2ccccc2)cc1` [IIIe, 2-Methoxy-N-(4-(phenylsulfonamidomethyl)benzyl)benzamide] here?
Answer: 1 nM

Question: Which EC does the source give for `O=C(NCc1ccc(CNS(=O)(=O)c2ccccc2)cc1)c1ccc(F)cc1` [IIIj, 4-Fluoro-N-(4-(phenylsulfonamidomethyl)benzyl)benzamide] here?
Answer: 1 nM

Question: Which EC does the source give for `O=C(NCc1ccc(CNS(=O)(=O)c2ccccc2)cc1)c1ccc(CNc2ncccn2)cc1` [N-(4-(phenylsulfonamidomethyl)benzyl)-4-((pyrimidin-2-ylamino)methyl)benzamide] here?
Answer: 1 nM

Question: For “Fluoro-N-(4-(phenylsulfonamidomethyl)benzyl)benzamide [IIIi]”, which EC is on record?
Answer: 1 nM

Reference: US10669270B2, “Amide-sulfamide derivatives, compositions, and uses related to CXCR4 inhibition” (Emory University, priority 2016, dated 2020)
